# Experimental data reported in patent US20250346600A1, “TRICYCLIC DERIVATIVES AND RELATED USES” (MOMA Therapeutics, Inc., priority 2023, published 2025).
# Where two headings read alike, the source gives them in different places.
# What was measured:
# HT29 cells = test: HT29 (MSS) 7 day viability, CellTiter Glo; assay type: cell-based; details: 7 days, read-out: HT29 (MSS) Viability 7 Day CTGAbs AC50
# How it was run: (§1)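 HCT116 seeded at 50 cells/well and HT29 at 500 cells/well onto compound plates (10-point 3-fold dilutions from 10 mM DMSO stock), incubated 7 days at 37 °C, 5% CO2.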
# [1] = biological target: Full length WRN protein (aa 2-1432) (Homo sapiens (Human), UniProt Q14191); test: WRN ATPase ADP-Glo biochemical assay, Assay Format B (100 μM ATP); details: 0.25 nM WRN, 100 nM C6.18 ssDNA, 60 min preincubation
# Chain of Full length WRN protein (aa 2-1432) (Q14191 2-1432): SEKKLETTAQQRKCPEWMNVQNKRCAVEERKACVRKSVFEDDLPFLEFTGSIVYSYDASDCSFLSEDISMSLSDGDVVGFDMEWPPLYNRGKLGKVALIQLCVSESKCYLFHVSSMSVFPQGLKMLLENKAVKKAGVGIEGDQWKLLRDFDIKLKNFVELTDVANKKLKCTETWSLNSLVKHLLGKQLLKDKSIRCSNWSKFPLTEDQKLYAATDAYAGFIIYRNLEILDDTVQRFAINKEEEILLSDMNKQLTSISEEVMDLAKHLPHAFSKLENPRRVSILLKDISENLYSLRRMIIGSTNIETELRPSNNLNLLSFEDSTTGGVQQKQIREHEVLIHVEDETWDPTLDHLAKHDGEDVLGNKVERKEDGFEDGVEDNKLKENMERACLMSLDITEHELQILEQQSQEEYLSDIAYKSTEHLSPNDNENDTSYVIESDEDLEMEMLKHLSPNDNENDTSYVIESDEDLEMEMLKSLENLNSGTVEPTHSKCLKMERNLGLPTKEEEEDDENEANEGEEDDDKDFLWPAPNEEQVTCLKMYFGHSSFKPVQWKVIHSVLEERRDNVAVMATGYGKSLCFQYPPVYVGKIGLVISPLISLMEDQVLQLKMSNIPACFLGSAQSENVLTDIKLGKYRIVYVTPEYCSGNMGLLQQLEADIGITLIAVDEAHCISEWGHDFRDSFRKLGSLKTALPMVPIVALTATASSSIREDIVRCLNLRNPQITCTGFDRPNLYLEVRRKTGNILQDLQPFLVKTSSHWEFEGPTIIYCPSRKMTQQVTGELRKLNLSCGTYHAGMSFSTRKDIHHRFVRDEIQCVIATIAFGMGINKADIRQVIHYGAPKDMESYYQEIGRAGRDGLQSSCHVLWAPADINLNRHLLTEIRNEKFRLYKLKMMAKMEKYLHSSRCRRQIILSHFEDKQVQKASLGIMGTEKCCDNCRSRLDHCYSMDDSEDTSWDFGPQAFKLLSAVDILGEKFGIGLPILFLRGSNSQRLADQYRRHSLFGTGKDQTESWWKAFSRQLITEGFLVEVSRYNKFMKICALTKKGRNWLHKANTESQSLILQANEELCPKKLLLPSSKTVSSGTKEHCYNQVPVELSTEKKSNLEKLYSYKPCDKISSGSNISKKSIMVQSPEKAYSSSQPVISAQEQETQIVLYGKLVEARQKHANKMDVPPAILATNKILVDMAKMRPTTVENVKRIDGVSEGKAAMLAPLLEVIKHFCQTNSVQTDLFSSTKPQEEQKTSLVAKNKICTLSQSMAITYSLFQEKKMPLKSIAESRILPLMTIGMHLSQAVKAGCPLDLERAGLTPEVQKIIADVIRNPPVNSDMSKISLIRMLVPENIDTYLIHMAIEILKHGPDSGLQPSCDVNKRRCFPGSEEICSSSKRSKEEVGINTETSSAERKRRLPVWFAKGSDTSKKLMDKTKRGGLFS
# HCT116 cells = test: HCT116 (MSI) 7 day viability, CellTiter Glo; assay type: cell-based; details: 7 days, read-out: HCT116 (MSI) Viability 7 Day Abs AC50
# How it was run: as §1
# [2] = read-out: ATPase ADPGlo AC50 (uM)- Assay Format B
SMILES,"AC50 [1, 2]","AC50 (HT29 cells; Homo sapiens, HT-29, 168 h)","AC50 (HCT116 cells; Homo sapiens, HCT-116, 168 h)",AC50 (HT29 cells),AC50 (HCT116 cells),AC50 ([1]; ATPase ADPGlo AC50 (uM)- Assay Format B)
"C=CC(=O)N1CCc2nn(-c3ccc(C4CC4)cc3O)c3c2C(C1)N(C(=O)c1cnc(SC(F)(F)F)c(F)c1N)CC3 (stereo not drawn) [Compound 214, 1-(5-(4-amino-5-fluoro-6-((trifluoromethyl)thio)nicotinoyl)-2-(4-cyclopropyl-2-hydroxyphenyl)-2,3,4,5,5a,6,8,9-octahydro-7H-1,2,5,7-tetraazabenzo[cd]azulen-7-yl)prop-2-en-1-one]",0.005 to 0.015 µM,> 3000 nM,1 to 100 nM,–,–,–
"C=CC(=O)N1CCc2nn(-c3ccc(C4CC4)cc3O)c3c2C(C1)N(C(=O)c1ccc(C(F)(F)F)nc1N)CC3 (stereo not drawn) [Compound 172, 1-(5-(2-amino-6-(trifluoromethyl)nicotinoyl)-2-(4-cyclopropyl-2-hydroxyphenyl)-2,3,4,5,5a,6,8,9-octahydro-7H-1,2,5,7-tetraazabenzo[cd]azulen-7-yl)prop-2-en-1-one]",0.005 to 0.015 µM,> 3000 nM,1 to 100 nM,–,–,–
"C=CC(=O)N1CCc2nn(-c3ccc(C4CCC4)cc3O)c3c2C(C1)N(C(=O)c1cc(F)c(C(F)(F)F)nc1N)CC3 (stereo not drawn) [Compound 165, 1-(5-(2-amino-5-fluoro-6-(trifluoromethyl)nicotinoyl)-2-(4-cyclobutyl-2-hydroxyphenyl)-2,3,4,5,5a,6,8,9-octahydro-7H-1,2,5,7-tetraazabenzo[cd]azulen-7-yl)prop-2-en-1-one]",0.015 to 0.055 µM,> 3000 nM,1 to 100 nM,–,–,–
"C=CC(=O)N1CCc2nn(-c3cc(F)c(C4CC4)cc3O)c3c2C(C1)N(C(=O)c1cnc(OC(F)(F)F)c(F)c1N)CC3 (stereo not drawn) [Compound 254, 1-(5-(4-amino-5-fluoro-6-(trifluoromethoxy)nicotinoyl)-2-(4-cyclopropyl-5-fluoro-2-hydroxyphenyl)-2,3,4,5,5a,6,8,9-octahydro-7H-1,2,5,7-tetraazabenzo[cd]azulen-7-yl)prop-2-en-1-one]",–,> 3000 nM,1 to 100 nM,–,–,0.015 to 0.055 µM
"C=CC(=O)N1CCc2nn(-c3ccc(SC(F)(F)F)cc3O)c3c2C(C1)N(C(=O)c1cnc(C(F)(F)F)cc1N)CC3 (stereo not drawn) [Compound 226, 1-(5-(4-amino-6-(trifluoromethyl)nicotinoyl)-2-(2-hydroxy-4-((trifluoromethyl)thio)phenyl)-2,3,4,5,5a,6,8,9-octahydro-7H-1,2,5,7-tetraazabenzo[cd]azulen-7-yl)prop-2-en-1-one]",0.005 to 0.015 µM,> 3000 nM,1 to 100 nM,–,–,–
"C=CC(=O)N1CCc2nn(-c3ccc(C4CCC4)cc3C#N)c3c2C(C1)N(C(=O)c1cnc(C(F)(F)F)cc1N)CC3 (stereo not drawn) [Compound 171, 2-(7-acryloyl-5-(4-amino-6-(trifluoromethyl)nicotinoyl)-3,4,5,5a,6,7,8,9-octahydro-2H-1,2,5,7-tetraazabenzo[cd]azulen-2-yl)-5-cyclobutylbenzonitrile]",0.015 to 0.055 µM,> 3000 nM,1 to 100 nM,–,–,–
"C=CC(=O)N1CCc2nn(-c3ccc(C4CC4)c(F)c3O)c3c2C(C1)N(C(=O)c1cnc(C(F)(F)F)cc1N)CC3 (stereo not drawn) [Compound 203, 1-(5-(4-amino-6-(trifluoromethyl)nicotinoyl)-2-(4-cyclopropyl-3-fluoro-2-hydroxyphenyl)-2,3,4,5,5a,6,8,9-octahydro-7H-1,2,5,7-tetraazabenzo[cd]azulen-7-yl)prop-2-en-1-one]",0.005 to 0.015 µM,> 3000 nM,1 to 100 nM,–,–,–

# Continued, in another order:
"AC50 [1, 2]",SMILES,"AC50 (HT29 cells; Homo sapiens, HT-29, 168 h)","AC50 (HCT116 cells; Homo sapiens, HCT-116, 168 h)",AC50 (HT29 cells),AC50 (HCT116 cells),AC50 ([1]; ATPase ADPGlo AC50 (uM)- Assay Format B)
0.015 to 0.055 µM,"C=CC(=O)N1CCc2nn(-c3ccc(C4CC4)c(F)c3O)c3c2C(C1)N(C(=O)c1cnc(Br)c(F)c1N)CC3 (stereo not drawn) [Compound 229, 1-(5-(4-amino-6-bromo-5-fluoronicotinoyl)-2-(4-cyclopropyl-3-fluoro-2-hydroxyphenyl)-2,3,4,5,5a,6,8,9-octahydro-7H-1,2,5,7-tetraazabenzo[cd]azulen-7-yl)prop-2-en-1-one]",–,–,> 3000 nM,1 to 100 nM,–
0.005 to 0.015 µM,"C=CC(=O)N1CCc2nn(-c3ccc(C4CCC4)cc3O)c3c2C(C1)N(C(=O)c1ccc(Br)c2[nH]c(OC(F)F)nc12)CC3 (stereo not drawn) [Compound 88, 1-(5-(7-bromo-2-(difluoromethoxy)-1H-benzo[d]imidazole-4-carbonyl)-2-(4-cyclobutyl-2-hydroxyphenyl)-2,3,4,5,5a,6,8,9-octahydro-7H-1,2,5,7-tetraazabenzo[cd]azulen-7-yl)prop-2-en-1-one]",> 3000 nM,1 to 100 nM,–,–,–
0.005 to 0.015 µM,"C=CC(=O)N1CCc2nn(-c3ccc(C4CC4)cc3O)c3c2C(C1)N(C(=O)c1cnc(C(F)(F)F)nc1N)CC3 (stereo not drawn) [Compound 197, 1-(5-(4-amino-2-(trifluoromethyl)pyrimidine-5-carbonyl)-2-(4-cyclopropyl-2-hydroxyphenyl)-2,3,4,5,5a,6,8,9-octahydro-7H-1,2,5,7-tetraazabenzo[cd]azulen-7-yl)prop-2-en-1-one]",> 3000 nM,1 to 100 nM,–,–,–
0.005 to 0.015 µM,"C=CC(=O)N1CCc2nn(C34CC(C5CCCC5)(C3)C4)c3c2C(C1)N(C(=O)c1cnc(C(F)(F)F)cc1N)CC3 (stereo not drawn) [Compound 219, 1-(5-(4-amino-6-(trifluoromethyl)nicotinoyl)-2-(3-cyclopentylbicyclo[1.1.1]pentan-1-yl)-2,3,4,5,5a,6,8,9-octahydro-7H-1,2,5,7-tetraazabenzo[cd]azulen-7-yl)prop-2-en-1-one]",–,–,> 3000 nM,1 to 100 nM,–
0.015 to 0.055 µM,"C=CC(=O)N1CCc2nn(-c3ccc(CC(F)(F)F)cc3O)c3c2C(C1)N(C(=O)c1cnc(C(F)(F)F)cc1N)CC3 (stereo not drawn) [Compound 180, 1-(5-(4-amino-6-(trifluoromethyl)nicotinoyl)-2-(2-hydroxy-4-(2,2,2-trifluoroethyl)phenyl)-2,3,4,5,5a,6,8,9-octahydro-7H-1,2,5,7-tetraazabenzo[cd]azulen-7-yl)prop-2-en-1-one]",> 3000 nM,1 to 100 nM,–,–,–
0.0015 to 0.005 µM,"C=CC(=O)N1CCc2nn(-c3ccc(C4CC4)cc3O)c3c2C(C1)N(C(=O)c1cnc(SC)cc1N)CC3 (stereo not drawn) [Compound 211, 1-(5-(4-amino-6-(methylthio)nicotinoyl)-2-(4-cyclopropyl-2-hydroxyphenyl)-2,3,4,5,5a,6,8,9-octahydro-7H-1,2,5,7-tetraazabenzo[cd]azulen-7-yl)prop-2-en-1-one]",> 3000 nM,1 to 100 nM,–,–,–
0.015 to 0.055 µM,"C=CC(=O)N1CCc2nn(-c3ccc(C4CC4)cc3)c3c2C(C1)N(C(=O)c1cnc(SC)nc1N)CC3 (stereo not drawn) [Compound 204, 1-(5-(4-amino-2-(methylthio)pyrimidine-5-carbonyl)-2-(4-cyclopropylphenyl)-2,3,4,5,5a,6,8,9-octahydro-7H-1,2,5,7-tetraazabenzo[cd]azulen-7-yl)prop-2-en-1-one]",> 3000 nM,1 to 100 nM,–,–,–
0.005 to 0.015 µM,"C=CC(=O)N1CCc2nn(-c3cc(F)c(C4CC4)cc3O)c3c2C(C1)N(C(=O)c1cnc(C(C)(F)F)c(F)c1N)CC3 (stereo not drawn) [Compound 253, 1-[7-[4-amino-6-(1,1-difluoroethyl)-5-fluoro-pyridine-3-carbonyl]-3-(4-cyclopropyl-5-fluoro-2-hydroxy-phenyl)-2,3,7,10-tetrazatricyclo[6.4.1.04,1 3]trideca-1,4(13)-dien-10-yl]prop-2-en-1-one]",> 3000 nM,1 to 100 nM,–,–,–
